Converted amounts (≈) assume the structure as drawn.
Columns and labels:
Escherichia coli [1] = test: Antibacterial activity against Escherichia coli ATCC 35210 after 24 hrs by microdilution method; assay type: functional; settings: ATCC 35210, 24 h
Enterobacter cloacae [2] = test: Antibacterial activity against Enterobacter cloacae after 24 hrs by microdilution method; assay type: functional
Micrococcus flavus [3] = test: Antibacterial activity against Micrococcus flavus ATCC 10240 after 24 hrs by microdilution method; assay type: functional; settings: ATCC 10240, 24 h
Talaromyces funiculosus [4] = test: Fungicidal activity against Penicillium funiculosum ATCC 36839 incubated for 72 hrs followed by serial sub-cultivation for 72 hrs and measured after 72 hrs by serial dilution method; assay type: functional
Bacillus cereus [5] = test: Bactericidal activity against Bacillus cereus incubated for 24 hrs followed by serial sub-cultivation and measured after 24 hrs by microdilution method; assay type: functional
Salmonella typhimurium [6] = test: Antibacterial activity against Salmonella typhimurium ATCC 13311 after 24 hrs by microdilution method; assay type: functional, Salmonella enterica subsp. enterica serovar Typhimurium; settings: Salmonella enterica, ATCC 13311, 24 h
Escherichia coli [7] = test: Bactericidal activity against Escherichia coli ATCC 35210 incubated for 24 hrs followed by serial sub-cultivation and measured after 24 hrs by microdilution method; assay type: functional
Aspergillus fumigatus [8] = test: Antifungal activity against Aspergillus fumigatus after 72 hrs by serial dilution method; assay type: functional
Candida albicans [9] = test: Antifungal activity against Candida albicans after 72 hrs by serial dilution method; assay type: functional
Micrococcus flavus [10] = test: Bactericidal activity against Micrococcus flavus ATCC 10240 incubated for 24 hrs followed by serial sub-cultivation and measured after 24 hrs by microdilution method; assay type: functional
Pseudomonas aeruginosa [11] = test: Bactericidal activity against Pseudomonas aeruginosa ATCC 27853 incubated for 24 hrs followed by serial sub-cultivation and measured after 24 hrs by microdilution method; assay type: functional
Aspergillus ochraceus [12] = test: Antifungal activity against Aspergillus ochraceus ATCC 12066 after 72 hrs by serial dilution method; assay type: functional; settings: ATCC 12066, 72 h
Talaromyces funiculosus [13] = test: Antifungal activity against Penicillium funiculosum ATCC 36839 after 72 hrs by serial dilution method; assay type: functional; settings: ATCC 36839, 72 h
Enterobacter cloacae [14] = test: Bactericidal activity against Enterobacter cloacae incubated for 24 hrs followed by serial sub-cultivation and measured after 24 hrs by microdilution method; assay type: functional
Aspergillus niger [15] = test: Fungicidal activity against Aspergillus niger ATCC 6275 incubated for 72 hrs followed by serial sub-cultivation for 72 hrs and measured after 72 hrs by serial dilution method; assay type: functional
Aspergillus fumigatus [16] = test: Fungicidal activity against Aspergillus fumigatus incubated for 72 hrs followed by serial sub-cultivation for 72 hrs and measured after 72 hrs by serial dilution method; assay type: functional
Trichoderma viride [17] = test: Fungicidal activity against Trichoderma viride IAM 5061 incubated for 72 hrs followed by serial sub-cultivation for 72 hrs and measured after 72 hrs by serial dilution method; assay type: functional
Aspergillus niger [18] = test: Antifungal activity against Aspergillus niger ATCC 6275 after 72 hrs by serial dilution method; assay type: functional; settings: ATCC 6275, 72 h
Salmonella typhimurium [19] = test: Bactericidal activity against Salmonella typhimurium ATCC 13311 incubated for 24 hrs followed by serial sub-cultivation and measured after 24 hrs by microdilution method; assay type: functional, Salmonella enterica subsp. enterica serovar Typhimurium
Bacillus cereus [20] = test: Antibacterial activity against Bacillus cereus after 24 hrs by microdilution method; assay type: functional
Listeria monocytogenes [21] = test: Antibacterial activity against Listeria monocytogenes NCTC 7973 after 24 hrs by microdilution method; assay type: functional; settings: NCTC 7973, 24 h
Staphylococcus aureus [22] = test: Antibacterial activity against Staphylococcus aureus ATCC 6538 after 24 hrs by microdilution method; assay type: functional; settings: ATCC 6538, 24 h
Penicillium ochrochloron [23] = test: Fungicidal activity against Penicillium ochrochloron ATCC 9112 incubated for 72 hrs followed by serial sub-cultivation for 72 hrs and measured after 72 hrs by serial dilution method; assay type: functional
Candida albicans [24] = test: Fungicidal activity against Candida albicans incubated for 72 hrs followed by serial sub-cultivation for 72 hrs and measured after 72 hrs by serial dilution method; assay type: functional
Aspergillus versicolor [25] = test: Fungicidal activity against Aspergillus versicolor ATCC 11730 incubated for 72 hrs followed by serial sub-cultivation for 72 hrs and measured after 72 hrs by serial dilution method; assay type: functional
Aspergillus versicolor [26] = test: Antifungal activity against Aspergillus versicolor ATCC 11730 after 72 hrs by serial dilution method; assay type: functional; settings: ATCC 11730, 72 h
Listeria monocytogenes [27] = test: Bactericidal activity against Listeria monocytogenes NCTC 7973 incubated for 24 hrs followed by serial sub-cultivation and measured after 24 hrs by microdilution method; assay type: functional
Staphylococcus aureus [28] = test: Bactericidal activity against Staphylococcus aureus ATCC 6538 incubated for 24 hrs followed by serial sub-cultivation and measured after 24 hrs by microdilution method; assay type: functional
Aspergillus ochraceus [29] = test: Fungicidal activity against Aspergillus ochraceus ATCC 12066 incubated for 72 hrs followed by serial sub-cultivation for 72 hrs and measured after 72 hrs by serial dilution method; assay type: functional
Penicillium ochrochloron [30] = test: Antifungal activity against Penicillium ochrochloron ATCC 9112 after 72 hrs by serial dilution method; assay type: functional; settings: ATCC 9112, 72 h
Pseudomonas aeruginosa [31] = test: Antibacterial activity against Pseudomonas aeruginosa ATCC 27853 after 24 hrs by microdilution method; assay type: functional; settings: ATCC 27853, 24 h
Trichoderma viride [32] = test: Antifungal activity against Trichoderma viride IAM 5061 after 72 hrs by serial dilution method; assay type: functional; settings: IAM 5061, 72 h

Row | SMILES | MIC (Escherichia coli [1]) | MIC (Enterobacter cloacae [2]) | MIC (Micrococcus flavus [3]) | MFC99.5 (Talaromyces funiculosus [4]) | MBC99.5 (Bacillus cereus [5]) | MIC (Salmonella typhimurium [6]) | MBC99.5 (Escherichia coli [7]) | MIC (Aspergillus fumigatus [8]) | MIC (Candida albicans [9]) | MBC99.5 (Micrococcus flavus [10]) | MBC99.5 (Pseudomonas aeruginosa [11]) | MIC (Aspergillus ochraceus [12]) | MIC (Talaromyces funiculosus [13]) | MBC99.5 (Enterobacter cloacae [14]) | MFC99.5 (Aspergillus niger [15]) | MFC99.5 (Aspergillus fumigatus [16]) | MFC99.5 (Trichoderma viride [17]) | MIC (Aspergillus niger [18]) | MBC99.5 (Salmonella typhimurium [19]) | MIC (Bacillus cereus [20]) | further results
1 | O=C(NN1C(=O)CSC1c1ccccc1)c1nsc2ccccc12 (centres undefined) | 112 µM (≈ 39.8 µg/mL) | 112 µM (≈ 39.8 µg/mL) | 225 µM (≈ 80 µg/mL) | 42.2 ×10⁻² umol/ml | 42.2 ×10⁻² umol/ml | 225 µM (≈ 80 µg/mL) | 22.5 ×10⁻² umol/ml | 112 µM (≈ 39.8 µg/mL) | 253 µM (≈ 89.9 µg/mL) | 42.2 ×10⁻² umol/ml | 42.2 ×10⁻² umol/ml | 28 µM (≈ 9.95 µg/mL) | 225 µM (≈ 80 µg/mL) | 22.5 ×10⁻² umol/ml | 22.5 ×10⁻² umol/ml | 22.5 ×10⁻² umol/ml | 11.2 ×10⁻² umol/ml | 112 µM (≈ 39.8 µg/mL) | 42.2 ×10⁻² umol/ml | 225 µM (≈ 80 µg/mL) | MIC (Listeria monocytogenes [21]): 225 µM (≈ 80 µg/mL); MIC (Staphylococcus aureus [22]): 225 µM (≈ 80 µg/mL); MFC99.5 (Penicillium ochrochloron [23]): 22.5 ×10⁻² umol/ml; MFC99.5 (Candida albicans [24]): 42.2 ×10⁻² umol/ml; MFC99.5 (Aspergillus versicolor [25]): 42.2 ×10⁻² umol/ml; MIC (Aspergillus versicolor [26]): 225 µM (≈ 80 µg/mL); MBC99.5 (Listeria monocytogenes [27]): 42.2 ×10⁻² umol/ml; MBC99.5 (Staphylococcus aureus [28]): 42.2 ×10⁻² umol/ml; MFC99.5 (Aspergillus ochraceus [29]): 5.6 ×10⁻² umol/ml; MIC (Penicillium ochrochloron [30]): 112 µM (≈ 39.8 µg/mL); MIC (Pseudomonas aeruginosa [31]): 225 µM (≈ 80 µg/mL); MIC (Trichoderma viride [32]): 56 µM (≈ 19.9 µg/mL)
2 | O=C(Cc1nsc2ccccc12)N/N=C/c1c(F)cccc1F | 116 µM (≈ 38.4 µg/mL) | 116 µM (≈ 38.4 µg/mL) | 116 µM (≈ 38.4 µg/mL) | 12.1 ×10⁻² umol/ml | 23.2 ×10⁻² umol/ml | 116 µM (≈ 38.4 µg/mL) | 23.2 ×10⁻² umol/ml | 482 µM (≈ 160 µg/mL) | 121 µM (≈ 40.1 µg/mL) | 23.2 ×10⁻² umol/ml | 23.2 ×10⁻² umol/ml | 121 µM (≈ 40.1 µg/mL) | 91 µM (≈ 30.2 µg/mL) | 23.2 ×10⁻² umol/ml | 24.1 ×10⁻² umol/ml | 96.4 ×10⁻² umol/ml | 12.1 ×10⁻² umol/ml | 121 µM (≈ 40.1 µg/mL) | 23.2 ×10⁻² umol/ml | 116 µM (≈ 38.4 µg/mL) | MIC (Listeria monocytogenes [21]): 116 µM (≈ 38.4 µg/mL); MIC (Staphylococcus aureus [22]): 29 µM (≈ 9.61 µg/mL); MFC99.5 (Penicillium ochrochloron [23]): 24.1 ×10⁻² umol/ml; MFC99.5 (Candida albicans [24]): 24.1 ×10⁻² umol/ml; MFC99.5 (Aspergillus versicolor [25]): 12.1 ×10⁻² umol/ml; MIC (Aspergillus versicolor [26]): 91 µM (≈ 30.2 µg/mL); MBC99.5 (Listeria monocytogenes [27]): 23.2 ×10⁻² umol/ml; MBC99.5 (Staphylococcus aureus [28]): 23.2 ×10⁻² umol/ml; MFC99.5 (Aspergillus ochraceus [29]): 24.1 ×10⁻² umol/ml; MIC (Penicillium ochrochloron [30]): 181 µM (≈ 60 µg/mL); MIC (Pseudomonas aeruginosa [31]): 116 µM (≈ 38.4 µg/mL); MIC (Trichoderma viride [32]): 61 µM (≈ 20.2 µg/mL)
